Results from paper PMC11923636, “Synthesis, Pharmacological Evaluation, and Molecular Modeling of Phthalimide Derivatives as Monoamine Oxidase and Cholinesterase Dual Inhibitors” (ACS Omega, 2025).

What was measured:
[1] = biological target: Electrophorus electricus AChE (Electrophorus electricus, UniProt O42275); assay: biochemical; assay type: biochemical; conditions: for IC50: mean ± SEM, n = 3, read-out: IC50 (μM) ± SEM eeAChE; for SI = IC50 of BChE/IC50 of AChE: selectivity index
Procedure: (§1) The synthesized compounds were evaluated for their inhibition potential against cholinesterases (Electrophorus electricus AChE and equine serum lyophilized BChE).
(§2) The cholinesterase in vitro bioassay for the synthesized compounds was performed using already reported protocols.[29],[30] Ellman’s assay method was used to study the inhibition of Electrophorus electricus AChE and Equine Serum lyophilized BChE. Stock solutions of synthesized compounds were prepared in potassium phosphate buffer (pH 8.0). A sufficient amount of 5,5-dithio-bis-2-nitrobenzoic acid (DTNB, Ellman’s reagent), a stock solution of synthesized compounds, and 0.03 U/ml of the enzyme (AChE or BChE) were added to a 96-well plate and incubated at 30 °C for 10 min. Subsequently, 1 mM ATCI or BTCI was added, and the reaction mixture was incubated for 15 min. […] Sample concentration was plotted against inhibitory activity to obtain IC50 values.

[2] = biological target: T1, equine serum lyophilized BChE (Equus caballus, UniProt P81908); assay: biochemical; conditions: mean ± SEM, n = 3; read-out: IC50 (μM) ± SEM eqBChE
T1 construct: Equine Serum lyophilized BChE; from tissue; host or cells: equine serum
Procedure: as §1, §2

[3] = biological target: T2, human MAO-A (Homo sapiens, UniProt P21397); assay: Human MAO isoform inhibition assay (fluorometric), MAO-A; assay type: biochemical; conditions: mean ± SEM, n = 3; read-out: IC50 (μM) ± SEM hMAO-A
T2 sequence (P21397 1-527): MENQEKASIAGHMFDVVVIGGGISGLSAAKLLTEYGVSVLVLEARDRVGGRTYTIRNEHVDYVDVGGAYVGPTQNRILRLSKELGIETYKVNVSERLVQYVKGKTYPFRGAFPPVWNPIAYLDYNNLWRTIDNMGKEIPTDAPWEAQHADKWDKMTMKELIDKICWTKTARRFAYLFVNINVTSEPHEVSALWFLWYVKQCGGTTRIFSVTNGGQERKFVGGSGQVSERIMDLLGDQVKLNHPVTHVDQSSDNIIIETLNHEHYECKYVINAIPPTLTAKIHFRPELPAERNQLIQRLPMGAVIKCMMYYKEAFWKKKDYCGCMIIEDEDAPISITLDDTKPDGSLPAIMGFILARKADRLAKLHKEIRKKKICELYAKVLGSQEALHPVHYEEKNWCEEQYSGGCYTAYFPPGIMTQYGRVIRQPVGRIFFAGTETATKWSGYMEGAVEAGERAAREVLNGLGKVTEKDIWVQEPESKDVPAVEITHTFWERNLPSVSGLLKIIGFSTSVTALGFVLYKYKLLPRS
Procedure: (§3) The human MAO isoform assay was also carried out using a fluorescence-based assay protocol according to the reported literature.
(§4) Inhibitory activity of the synthesized compounds against MAO isoforms, specifically human MAO-A and MAO-B, was determined by using benzylamine and tyramine substrates in the dark (protected from light) in a 96-well plate by an already reported fluorometric method.[31],[32]

[4] = biological target: T3, human MAO-B (Homo sapiens, UniProt P27338); assay: Human MAO isoform inhibition assay (fluorometric), MAO-B; assay type: biochemical; conditions: for IC50: mean ± SEM, n = 3, read-out: IC50 (μM) ± SEM hMAO-B; for SI (IC50 hMAO-A/IC50 hMAO-B): selectivity index
T3 sequence (P27338 1-520): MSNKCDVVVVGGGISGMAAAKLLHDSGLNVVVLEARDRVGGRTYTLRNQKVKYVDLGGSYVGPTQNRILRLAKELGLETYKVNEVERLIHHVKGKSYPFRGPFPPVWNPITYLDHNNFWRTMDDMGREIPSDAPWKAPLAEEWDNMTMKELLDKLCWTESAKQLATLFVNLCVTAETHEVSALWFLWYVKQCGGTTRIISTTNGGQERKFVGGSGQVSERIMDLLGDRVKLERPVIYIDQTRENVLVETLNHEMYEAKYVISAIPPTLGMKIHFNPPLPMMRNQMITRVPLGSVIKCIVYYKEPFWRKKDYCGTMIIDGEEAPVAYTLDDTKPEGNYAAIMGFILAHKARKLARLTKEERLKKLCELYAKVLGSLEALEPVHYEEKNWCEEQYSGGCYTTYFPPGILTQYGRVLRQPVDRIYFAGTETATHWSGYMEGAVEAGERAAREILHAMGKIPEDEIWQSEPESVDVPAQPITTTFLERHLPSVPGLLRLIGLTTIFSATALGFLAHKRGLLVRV
Procedure: as §3, §4

[5] = tested on: AChE; conditions: cited from earlier work
[6] = biological target: BChE; conditions: read-out: BChE enzyme inhibition dissociation constant (Ki value); cited from earlier work

Chain of Electrophorus electricus AChE (O42275 24-633): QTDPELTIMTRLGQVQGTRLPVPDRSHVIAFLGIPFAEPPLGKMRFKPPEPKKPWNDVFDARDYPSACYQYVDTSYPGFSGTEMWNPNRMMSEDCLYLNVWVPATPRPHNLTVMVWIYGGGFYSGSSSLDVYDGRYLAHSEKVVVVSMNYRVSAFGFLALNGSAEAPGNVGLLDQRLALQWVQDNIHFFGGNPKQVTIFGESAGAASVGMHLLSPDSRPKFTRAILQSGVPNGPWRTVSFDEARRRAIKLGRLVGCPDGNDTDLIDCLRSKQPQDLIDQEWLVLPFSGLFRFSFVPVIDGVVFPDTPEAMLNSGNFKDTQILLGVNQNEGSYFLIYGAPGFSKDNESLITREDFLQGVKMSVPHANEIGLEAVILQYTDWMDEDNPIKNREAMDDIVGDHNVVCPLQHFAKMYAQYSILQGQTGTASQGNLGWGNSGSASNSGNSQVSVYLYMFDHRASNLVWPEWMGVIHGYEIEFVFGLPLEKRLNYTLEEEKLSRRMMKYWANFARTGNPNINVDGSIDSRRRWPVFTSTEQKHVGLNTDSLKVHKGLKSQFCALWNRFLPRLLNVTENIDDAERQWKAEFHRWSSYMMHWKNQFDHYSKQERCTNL
T1 sequence (P81908 whole entry): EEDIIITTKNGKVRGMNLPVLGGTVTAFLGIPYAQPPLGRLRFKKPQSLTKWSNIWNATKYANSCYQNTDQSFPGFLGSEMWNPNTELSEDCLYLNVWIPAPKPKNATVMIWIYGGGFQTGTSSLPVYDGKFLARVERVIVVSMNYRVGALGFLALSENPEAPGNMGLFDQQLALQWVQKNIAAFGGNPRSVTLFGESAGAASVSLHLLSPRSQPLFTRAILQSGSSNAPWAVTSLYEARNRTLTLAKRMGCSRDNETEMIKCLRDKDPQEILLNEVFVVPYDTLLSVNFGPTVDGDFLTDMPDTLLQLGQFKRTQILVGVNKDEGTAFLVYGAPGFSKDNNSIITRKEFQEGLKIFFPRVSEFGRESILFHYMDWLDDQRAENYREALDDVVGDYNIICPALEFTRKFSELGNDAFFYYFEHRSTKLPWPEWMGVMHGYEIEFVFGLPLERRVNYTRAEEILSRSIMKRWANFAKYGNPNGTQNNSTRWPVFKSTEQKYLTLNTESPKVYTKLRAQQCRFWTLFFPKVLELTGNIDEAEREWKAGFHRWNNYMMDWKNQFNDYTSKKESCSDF

Row | Structure (SMILES) | IC50 [1] [µM] | SI = IC50 of BChE/IC50 of AChE [1] | IC50 [2] [µM] | IC50 [3] [µM] | IC50 [4] [µM] | SI (IC50 hMAO-A/IC50 hMAO-B) [4] | IC50 ([5]; reported in the literature, ref number not given) [µM] | Ki [6] [µM] | Ki ([5]; read-out: AChE enzyme inhibition dissociation constant (Ki value)) [µM]
1 | N#CCc1ccc(-c2ccc(CN3C(=O)c4ccccc4C3=O)cc2)cc1 [3g] | 13.43 ± 0.08 | 7 | 99.1 ± 1.21 | 5.44 ± 0.16 | 0.78 ± 0.04 | 7 | – | – | –
2 | O=C1c2ccccc2C(=O)N1Cc1ccc(-c2cccs2)cc1 [3l] | 0.91 ± 0.02 | 61 | 55.3 ± 1.31 | 8.29 ± 0.33 | 0.14 ± 0.01 | 59 | – | – | –
3 | Cc1cc(C)c(-c2ccc(CN3C(=O)c4ccccc4C3=O)cc2)c(C)c1 [3i] | 0.88 ± 0.05 | 56 | 49.2 ± 1.11 | 50.9 ± 1.42 | 0.71 ± 0.04 | 71 | – | – | –
4 | COc1cc(CN2C(=O)c3cc(Cl)c(Cl)cc3C2=O)cc(OC)c1OC [II] | – | – | – | – | – | – | 0.0135 | – | –
5 | O=C1c2ccccc2C(=O)N1CCc1cc2ccccc2[nH]1 [IV] | – | – | – | – | – | – | – | 100 | –
6 | O=C1c2ccccc2C(=O)N1Cc1ccc(-c2ccc([N+](=O)[O-])cc2)cc1 [3c] | 0.94 ± 0.12 | 52 | 49.1 ± 1.39 | 19.4 ± 1.21 | 0.24 ± 0.01 | 80 | – | – | –
7 | O=C1c2ccccc2C(=O)N1C/C=C/CN1CCN(Cc2ccccc2)CC1 [III] | – | – | – | – | – | – | – | – | 193
8 | Cc1ccc(-c2ccc(CN3C(=O)c4ccccc4C3=O)cc2)cc1 [3a] | 3.16 ± 0.09 | 15 | 49.1 ± 1.36 | 19.3 ± 1.28 | 1.04 ± 0.03 | 18 | – | – | –
